Reference: a flash point compilation (Sun et al. 2020)

| SMILES | flash point |
| --- | --- |
| OCCOc1ccccc1 [2-phenoxyethanol] | 121.00 °C |
| Oc1ccc(Cl)cc1 [4-chlorophenol] | 121.00 °C |
| C=CC(=O)Cl [prop-2-enoyl chloride] | 14.00 °C |
| CCC(C)OC(C)=O (configuration not stated) [butan-2-yl acetate] | 17.00 °C |
| CC(CCO)CC(C)(C)C (configuration not stated) [3,5,5-trimethylhexan-1-ol] | 93.00 °C |
| COCCOCCOC [1-methoxy-2-(2-methoxyethoxy)ethane] | 67.00 °C |
| Clc1ccc2ccccc2c1 [2-chloronaphthalene] | 125.00 °C |
| CCCCOCCO [2-butoxyethanol] | 61.00 °C |
| Cc1ccc(C)cc1.Cc1cccc(C)c1.Cc1ccccc1C [1,2-xylene;1,3-xylene;1,4-xylene] | 25.00 °C |
| CC(C)=CCC/C(C)=C\CC/C(C)=C/CC/C=C(\C)CC/C=C(\C)CCC=C(C)C | 110.00 °C |
| CCCCCCCCCCOC(=O)c1ccccc1C(=O)OCCCCCCCCCC [didecyl benzene-1,2-dicarboxylate] | 232.00 °C |
| C=CC(=O)OCC [ethyl prop-2-enoate] | 9.00 °C |
| S=C([S-])NCCNC(=S)[S-].[Mn+2] | 138.00 °C |
| C=Cc1ccccc1C=C [1,2-bis(ethenyl)benzene] | 62.00 °C |
| CCOP(=S)(OCC)Oc1ccc([N+](=O)[O-])cc1 | 120.00 °C |
| Oc1c(Cl)cc(Cl)cc1Cl [2,4,6-trichlorophenol] | 99.00 °C |
| CN(C)c1ccccc1 [N,N-dimethylaniline] | 63.00 °C |
| Cl.O=C(O)CCP(CCC(=O)O)CCC(=O)O | 202.00 °C |
| CCN(C)N=O [N-ethyl-N-methylnitrous amide] | 76.00 °C |
| OCCCCO [butane-1,4-diol] | 119.00 °C |
| C=Cc1ccccc1 [styrene] | 31.00 °C |
| N#CCCCCC#N [hexanedinitrile] | 93.00 °C |
| Cc1ccccc1Br [1-bromo-2-methylbenzene] | 79.00 °C |

| SMILES | flash point |
| --- | --- |
| ClNc1ccccc1 [N-chloroaniline] | 108.00 °C |
| CC(C)NC(C)C [N-propan-2-ylpropan-2-amine] | -1.00 °C |
| N#CCCC#N [butanedinitrile] | 132.00 °C |
| COc1cc(Cl)c(OC)cc1Cl [1,4-dichloro-2,5-dimethoxybenzene] | 161.00 °C |
| CCCCOC(=O)COC(=O)c1ccccc1C(=O)OCCCC | 199.00 °C |
| ClCCCCl [1,3-dichloropropane] | 21.00 °C |
| Cc1ccccc1N [2-methylaniline] | 85.00 °C |
| CCCCc1ccccc1 [butylbenzene] | 71.00 °C |
| CCOP(=S)(OCC)Oc1nc(Cl)c(Cl)cc1Cl | 28.00 °C |
| CC(C)(O)C#N [2-hydroxy-2-methylpropanenitrile] | 74.00 °C |
| Cc1ccc(Br)cc1 [1-bromo-4-methylbenzene] | 85.00 °C |
| O=CC=Cc1ccccc1 [3-phenylprop-2-enal] | 120.00 °C |
| Nc1ccccn1 [pyridin-2-amine] | 92.00 °C |
| Oc1cc(Cl)c(Cl)cc1Cl [2,4,5-trichlorophenol] | 133.00 °C |
| CCCl [chloroethane] | -50.00 °C |
| C/C=C/CC#N [(E)-pent-3-enenitrile] | 38.00 °C |
| Oc1ccccc1Cl [2-chlorophenol] | 64.00 °C |
| C=O.O=C=Nc1ccccc1 [formaldehyde;isocyanatobenzene] | 218.00 °C |
| C=CC(=O)OC [methyl prop-2-enoate] | 7.00 °C |
| O=C1OCCO1 [1,3-dioxolan-2-one] | 143.00 °C |
| ClCc1ccccc1 [chloromethylbenzene] | 67.00 °C |
| C=C(C)C=O [2-methylprop-2-enal] | 2.00 °C |
| CCCCCCOC(=O)c1ccccc1C(=O)OCCCCCC [dihexyl benzene-1,2-dicarboxylate] | 177.00 °C |

| SMILES | flash point |
| --- | --- |
| NCc1ccco1 [furan-2-ylmethanamine] | 37.00 °C |
| CCCCC(CC)COP(OCC(CC)CCCC)OCC(CC)CCCC (configuration not stated) [tris(2-ethylhexyl) phosphite] | 171.00 °C |
| CCB(CC)CC [triethylborane] | -36.00 °C |
| c1nc[nH]n1 [1H-1,2,4-triazole] | 170.00 °C |
| N#Cc1ccccc1 [benzonitrile] | 72.00 °C |
| C1=CCCCC1 [cyclohexene] | -12.00 °C |
| O=P(Oc1ccccc1)(Oc1ccccc1)Oc1ccccc1 [triphenyl phosphate] | 220.00 °C |
| CCC[N+](=O)[O-] [1-nitropropane] | 34.00 °C |
| Cc1cc(C)c(C)cc1C [1,2,4,5-tetramethylbenzene] | 54.00 °C |
| CCCCC(CC)COP(=O)(Oc1ccccc1)Oc1ccccc1 (configuration not stated) [2-ethylhexyl diphenyl phosphate] | 224.00 °C |
| O=[N+]([O-])c1cccc2ccccc12 [1-nitronaphthalene] | 164.00 °C |
| CCC(C=O)CC [2-ethylbutanal] | 21.00 °C |
| C=CCOCC1CO1 (configuration not stated) [2-(prop-2-enoxymethyl)oxirane] | 57.00 °C |
| CCOP(=S)(OCC)Oc1cc(C)nc(N(CC)CC)n1 | 113.00 °C |
| Cc1ccc(C)c(N)c1 [2,5-dimethylaniline] | 94.00 °C |
| CCOC(=O)Cc1ccccc1 [ethyl 2-phenylacetate] | 99.00 °C |
| C=CC=O [prop-2-enal] | -26.00 °C |
| CCc1ccccc1 [ethylbenzene] | 15.00 °C |
| FCC1CO1 (configuration not stated) [2-(fluoromethyl)oxirane] | 4.00 °C |
| NC(=O)CCl [2-chloroacetamide] | 170.00 °C |
| CCCCCCCCCC(=O)O [decanoic acid] | 113.00 °C |
| COC(=O)c1ccc(C)cc1 [methyl 4-methylbenzoate] | 96.00 °C |

Other lines, results leading:

| flash point | SMILES |
| --- | --- |
| -37.00 °C | CCOC [methoxyethane] |
| 83.00 °C | CCCCCCCCC=O [nonanal] |
| 101.00 °C | C=C1CCC=C(C)CC[C@@H]2[C@@H]1CC2(C)C |
| 216.00 °C | Cc1cc(O)c(C(C)(C)C)cc1Sc1cc(C(C)(C)C)c(O)cc1C |
| 177.00 °C | CC(=O)NCCO [N-(2-hydroxyethyl)acetamide] |
| -27.00 °C | C[Si](C)(C)C [tetramethylsilane] |
| -30.00 °C | Cc1ccco1 [2-methylfuran] |
| 210.00 °C | CCCCC(CC)COC(=O)CCCCCCCCC(=O)OCC(CC)CCCC (configuration not stated) [bis(2-ethylhexyl) decanedioate] |
| 61.00 °C | C=CC(=O)OCC1CO1 (configuration not stated) [oxiran-2-ylmethyl prop-2-enoate] |
| 33.00 °C | CC(=O)C=C=O [but-1-ene-1,3-dione] |
| 157.00 °C | O=C1CCC(=O)O1 [oxolane-2,5-dione] |
| 93.00 °C | CC(O)CC(C)(C)O (configuration not stated) [2-methylpentane-2,4-diol] |
| 107.00 °C | COC(=O)CCCCC(=O)OC [dimethyl hexanedioate] |
| 39.00 °C | C=CCOC(=O)CC(C)C [prop-2-enyl 3-methylbutanoate] |
| -11.00 °C | c1ccccc1 [benzene] |
| 63.00 °C | C=C(Cl)C(Cl)CCl (configuration not stated) [2,3,4-trichlorobut-1-ene] |
| 33.00 °C | CCCCCOC(C)=O [pentyl acetate] |
| 98.00 °C | CCO[Si](CCCN)(OCC)OCC [3-triethoxysilylpropan-1-amine] |
| 113.00 °C | CCCCOC(=O)CCCCC(=O)OCCCC [dibutyl hexanedioate] |
| 149.00 °C | O=C1OC(=O)C2CCCCC12 (configuration not stated) [3a,4,5,6,7,7a-hexahydro-2-benzofuran-1,3-dione] |

| flash point | SMILES |
| --- | --- |
| 61.00 °C | COC(C)(C)CC(C)=O [4-methoxy-4-methylpentan-2-one] |
| 204.00 °C | CCCCCCOC(=O)CCCCCCCC(=O)OCCCCCC [dihexyl nonanedioate] |
| 73.00 °C | OCCCCl [3-chloropropan-1-ol] |
| 100.00 °C | O=C(O)CC(O)(CC(=O)O)C(=O)O [2-hydroxypropane-1,2,3-tricarboxylic acid] |
| -7.00 °C | C=CCOCC=C [3-prop-2-enoxyprop-1-ene] |
| 113.00 °C | CC(O)C(=O)O (configuration not stated) [2-hydroxypropanoic acid] |
| 107.00 °C | Clc1cc(Cl)cc(Cl)c1 [1,3,5-trichlorobenzene] |
| 2.00 °C | CC(C)=CC(C)(C)C [2,4,4-trimethylpent-2-ene] |
| 85.00 °C | CC(C)=CC(=O)C=C(C)C [2,6-dimethylhepta-2,5-dien-4-one] |
| 307.00 °C | CCCCCC1OC1CC1OC1CCCCCCCC(=O)OCC(COC(=O)CCCCCCCC1OC1CC1OC1CCCCC)OC(=O)CCCCCCCC1OC1CC1OC1CCCCC (configuration not stated) |
| 64.00 °C | CC(C)(C)C(=O)O [2,2-dimethylpropanoic acid] |
| 272.00 °C | O=C1OC(=O)c2cccc3cccc1c23 |
| 97.00 °C | C=C(C)C1CC=C(C)C(OC(C)=O)C1 (configuration not stated) [(2-methyl-5-prop-1-en-2-ylcyclohex-2-en-1-yl) acetate] |
| -21.00 °C | C=CC/C=C/C [(4E)-hexa-1,4-diene] |
| 20.00 °C | C=COC(=O)CCC [ethenyl butanoate] |
| 69.00 °C | O=CO [formic acid] |
| 178.00 °C | CCCCOC(=O)CCCCCCCCC(=O)OCCCC [dibutyl decanedioate] |
| 74.00 °C | CC(C)CC(O)CC(C)C [2,6-dimethylheptan-4-ol] |
| 104.00 °C | CC(C)CCCCCCCO [8-methylnonan-1-ol] |
